Read-outs that look alike come from different tables or passages of the source.
What was measured:
[1] = system: 45-bp dsDNA; assay: DNA intercalation: acridine orange displacement from dsDNA by fluorescence polarization; assay type: binding; conditions: Supplementary Table 2; for % intercalation at 30 µM: acridine orange displacement compared to mitoxantrone; for Polarization: compound 30 µM
Method: Ten microliters of HEN buffer (10 mM HEPES pH 7.5, 1 mM EDTA pH 7.5, 100 mM NaCl) were dispensed per well using a Thermo Multidrop Combi dispenser (Thermo Scientific). The liquid was collected at the well bottom using centrifugation for 30 s at 180×g. […] The final concentration of compounds in the assay was 30 µM. […] The liquid was collected at the well bottom using centrifugation for 30 s at 180×g. […] The liquid was collected at the well bottom using centrifugation for 30 s at 180 × g and the plates were incubated for 30 min. Mitoxantrone, a known DNA intercalator was used at 50 µM as a positive control, while DMSO alone was used as negative control. FP was measured using a Biotek Synergy Neo plate reader. […] All FP values are expressed in millipolarization (mP) units. The mP values were calculated using the equation mP = 1000 × [(I S−I SB)−(I P−I PB)]/[I S—I SB) + (I P−I PB)], where I S and […] to the parallel and perpendicular emission intensity, respectively, and I SB and I SP corresponds to parallel emission intensity perpendicular emission intensity of the buffer, respectively. The experimental G-factor, defined as G = I S/I P, was set to 1.0 in all experiments.

[2] = molecular target: T1, mouse cGAS (Mus musculus, UniProt Q8C6L5); assay: RapidFire mass spectrometry (RF-MS) cGAS enzymatic assay, cGAMP product formation; assay type: biochemical; conditions: for inhibition at 12.5 µM: read-out: % inhibition at 12.5 µM
T1 construct: recombinant full-length mouse cGAS in reaction buffer; His6-SUMO (N, cleaved yes); made in house; host or cells: E. coli BL21(DE3) RIL
Method: The liquid was collected at the well bottom using centrifugation for 30 s at 180×g. […] Plates were centrifuged for 30 s at 180×g to collect all liquid at the bottom of the wells. […] The reaction was stopped by addition of 65 µl of 0.5% (v/v) formic acid per well. The plates were centrifuged for 30 s at 180×g and sealed with a Velocity11 PlateLoc thermal plate sealer.
The solvent used for loading/washing process was an aqueous solution of 5 mM ammonium acetate, pH 10. […] Each sample of approximately 35 µl were aspirated from a 384-well plate and separated using a Graphitic carbon Type D cartridge. After each sample was loaded onto the cartridge it was washed for 4 s at 1.5 ml min^−1 using the aqueous solvent. ATP, GTP and cGAMP were eluted for 5 s using the organic solvent at a flow rate of 1.5 ml min^−1. The cartridge was then re-equilibrated with the aqueous solvent for 5 s at a flow rate of 1.5 ml min^−1. All samples were analyzed using a negative ionization mode in the mass spectrometer, with a gas temperature of 350 °C, nebulizer pressure of 35 psig, gas flow rate of 15 l min^−1. […] The Agilent RapidFire Integrator software was used to calculate the area under the curve (AUC) of the extracted ion counts for each analyte. Data points represent values of product formation. Catalytic rates expressed as percent product formation were calculated using the AUC of cGAMP and using the AUC’s of ATP and GTP to normalize for variations in the capacity of the solid phase extraction column during a screening run, as shown in the following formula: product formation (%) = [(AUCcGAMP × 100)/(AUCcGAMP + ½ AUCATP + ½ AUCGTP)].
To determine the percent inhibition of mouse cGAS the data was normalized against the positive control (column 24) and negative control (column 23). […] The quality of the screen was assessed by Z′ factor[57] calculated as follows: Z′ = 1−[3∗(standard deviation positive control + standard deviation negative control)/(average positive control—average negative control)].

[3] = Supplementary Table 2, batch of compounds stored in the screening library, read-out: IC50
[4] = Supplementary Table 2, compound 12.5 µM

T1 sequence (Q8C6L5 whole entry): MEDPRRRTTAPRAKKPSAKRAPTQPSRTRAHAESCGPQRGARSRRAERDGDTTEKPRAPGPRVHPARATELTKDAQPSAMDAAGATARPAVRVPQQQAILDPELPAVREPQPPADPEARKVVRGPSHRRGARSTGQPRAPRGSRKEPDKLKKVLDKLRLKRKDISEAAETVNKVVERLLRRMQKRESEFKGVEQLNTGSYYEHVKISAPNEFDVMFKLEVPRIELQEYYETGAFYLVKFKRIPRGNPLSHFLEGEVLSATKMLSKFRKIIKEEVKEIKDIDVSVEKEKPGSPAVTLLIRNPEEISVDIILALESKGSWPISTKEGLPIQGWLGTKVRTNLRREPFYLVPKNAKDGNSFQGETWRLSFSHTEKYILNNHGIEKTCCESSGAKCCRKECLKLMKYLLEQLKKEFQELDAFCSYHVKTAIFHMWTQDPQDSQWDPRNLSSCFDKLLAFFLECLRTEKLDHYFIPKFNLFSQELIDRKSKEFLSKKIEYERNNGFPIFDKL

| Compound | % intercalation at 30 µM [1] | Polarization [1] | IC50 [2, 3] | inhibition at 12.5 µM [2, 4] | IC50 [2] | inhibition at 12.5 µM [2] | IC50 ([2]; Fig. 1e, four prioritized screening hits, confirmed with independent lots of compound, read-out: IC50) |
| --- | --- | --- | --- | --- | --- | --- | --- |
| O=C(Nc1nncs1)c1cn(-c2ccccc2Br)nn1 [RU191669] | -1.0% | 253 mP | 9.09 µM | 71% |  |  |  |
| O=C1c2c(O)ccc(O)c2C(=O)c2c(NCCNCCO)ccc(NCCNCCO)c21 [RU627] | 102.5% | 41 mP | 0.72 µM | 94% |  |  |  |
| CCN(CC)CCNc1ccc(CO)c2sc3ccccc3c(=O)c12 [RU869] | 81.2% | 85 mP | 6.8 µM | 66% |  |  |  |
| Cc1nnc(NC(=O)c2ccc(S(=O)(=O)Nc3cccc(C(F)(F)F)c3)o2)s1 [RU174368] | 5.6% | 239 mP | 7.47 µM | 76% |  |  |  |
| CC(=O)[C@]1(O)Cc2c(O)c3c(c(O)c2[C@@H](O[C@H]2C[C@H](N)[C@H](O)[C@H](C)O2)C1)C(=O)c1ccccc1C3=O [RU84314] | 87.2% | 72 mP | 1.45 µM | 90% |  |  |  |
| CC[n+]1c(-c2ccccc2)c2cc(N)ccc2c2ccc(N)cc21 [RU662] | 101.9% | 42 mP | 0.43 µM | 97% |  |  |  |
| CC(C)OC(=O)C(C#N)=Cc1ccc([N+](=O)[O-])o1 [RU94102] | -8.1% | 267 mP | 8.14 µM | 64% |  |  |  |
| COc1cccc2c1C(=O)c1c(O)c3c(c(O)c1C2=O)C[C@@](O)(C(C)=O)C[C@@H]3O[C@H]1C[C@H](N)[C@H](O)[C@H](C)O1 [RU83653] | 98.0% | 50 mP | 1.81 µM | 91% |  |  |  |
| N#Cc1cc(I)c(O)c([N+](=O)[O-])c1 [RU187299] | -2.8% | 256 mP | 0.58 µM | 95% |  |  |  |
| N#CC1=C(N)SC(N)=C(C#N)C1c1ccc([N+](=O)[O-])cc1 [RU107796] | -7.6% | 266 mP | 8.66 µM | 62% |  |  |  |
| S=c1[nH]nc(-c2sc3ccccc3c2Cl)o1 [RU3433] |  | 288 mP | 6.12 µM | 92% |  |  |  |
| O=c1cc(CCn2cccn2)nc(-c2ccc(CN3CCC[C@@H]3CO)cc2)[nH]1 [RU234543] | -9.3% | 270 mP | 6.76 µM | 89% |  |  |  |
| O=C1CN2C(=C1c1ccccc1)NC(=O)c1sc3ccccc3c12 [RU207450] |  | 274 mP | 9.69 µM | 70% |  |  |  |
| OCc1cn(-c2ccccc2Cl)nn1 [RU219771] | -1.3% | 253 mP | 1.27 µM | 94% |  |  |  |
| O=[N+]([O-])c1ccc(O)c([N+](=O)[O-])c1 [RU803] | -4.7% | 260 mP |  |  | 0.87 µM | 96% |  |
| O=c1[nH]n2c(=O)c3ccccc3nc2c2ccccc12 [RU5004] | -2.1% | 255 mP | 6.49 µM | 90% |  |  |  |
| Cc1ccc(C(=O)c2nc3c(n2O)CCCCC3)cc1 [RU171395] | -0.3% | 251 mP | 0.25 µM | 90% |  |  |  |
| Oc1c(Cl)cc(Cl)c(Cl)c1Cc1c(O)c(Cl)cc(Cl)c1Cl [RU161] | 69.6% | 108 mP |  |  | 0.39 µM | 93% |  |
| COc1cccc2c1C(=O)c1c(O)c3c(c(O)c1C2=O)C[C@@](O)(C(C)=O)C[C@@H]3OC1CC(N)C(O)C(C)O1 (stereo partly shown) [RU24146] |  | 55 mP | 0.69 µM | 93% |  |  |  |
| CCC1=NN2C(=N)/C(=C/c3ccc(O)cc3)C(=O)N=C2S1 [RU169196] | -7.5% | 266 mP | 4.25 µM | 89% |  |  |  |
| N#CCC(=O)Nc1sc2c(c1C(N)=O)CCCC2 [RU93687] | -5.8% | 263 mP | 9.11 µM | 91% |  |  |  |
| O=C(CCl)Nc1nc(-c2c[nH]c3ccccc23)cs1 [RU114757] | -10.1% | 271 mP | 5.38 µM | 72% |  |  | 1.4 µM |
| O=C(O)COc1cc(Cl)c(Cl)cc1Cl [RU1535] | 3.4% | 244 mP | 0.55 µM | 98% |  |  |  |
| COc1cccc2c1C(=O)c1c(O)c3c(c(O)c1C2=O)C[C@@](O)(C(=O)CO)C[C@@H]3O[C@H]1C[C@H](N)[C@@H](O)[C@H](C)O1 [RU162145] | 96.5% | 53 mP |  | 98% | 0.58 µM |  |  |
| CS(=O)(=O)c1ncc2c(n1)c(=O)c(C#N)c1[nH]c3ccccc3c(=O)n12 [RU207488] |  | 272 mP | 4.68 µM | 67% |  |  |  |
| CC[C@@]1(O)C[C@H](O[C@H]2C[C@H](N(C)C)[C@H](O)[C@H](C)O2)c2c(cc3c(c2O)C(=O)c2c(O)cccc2C3=O)[C@H]1C(=O)OC [RU891] | 90.6% | 65 mP | 1.42 µM | 98% |  |  |  |
| O=C(O)c1cc(O)c2c(c1)[C@@H]([C@H]1c3cc(C(=O)O)cc(O)c3C(=O)c3c(O[C@H]4O[C@H](CO)[C@@H](O)[C@H](O)[C@H]4O)cccc31)c1cccc(O[C@H]3O[C@H](CO)[C@@H](O)[C@H](O)[C@H]3O)c1C2=O [RU646] | -13.5% | 278 mP | 8.76 µM | 82% |  |  |  |
| CCC1=NN2C(=N)/C(=C/c3cccs3)C(=O)N=C2S1 [RU169248] | -5.7% | 262 mP | 3.34 µM | 97% |  |  |  |

— publication PMC5622107, “Small molecule inhibition of cGAS reduces interferon expression in primary macrophages from autoimmune mice” (Nature Communications, 2017)
